In patent publication US7501397B2, “Helical peptidomimetics with enhanced activity” (The Brigham and Women's Hospital, Inc., priority 2004, dated 2009):
Non-standard residues stand in square brackets, D forms with d. Residues, ends and D or L forms follow the SMILES beside them. *: point of attachment. Boc = CC(C)(C)OC(=O)*; Aib = CC(C)(N)C(=O)O; Bn = c1ccc(C*)cc1

target: γ-secretase (Homo sapiens, UniProt P49768); test: cell-free γ-secretase assay using detergent-solubilized membranes from HeLa cells and a recombinant APP-based substrate; type: biochemical; set-up: detergent-solubilized membranes from HeLa cells; endogenous in cells; host or cells: HeLa cells (detergent-solubilized membranes); details: 50% inhibition of Aβ40 production; at least three independent experiments; read-out: Cell-free Assay IC50
Description: Compounds were tested in a γ-secretase assay using detergent-solubilized membranes from HeLa cells and a recombinant APP-based substrate (Table 2, 18). […] Moreover, the γ-secretase inhibition appears to show dependence on length.

SMILES | IC50 [nM]
CC[C@@H](C)[C@@H](NC(=O)[C@H](NC(=O)[C@H](NC(=O)OC(C)(C)C)C(C)C)C(C)C)C(=O)NC(C)(C)C(=O)N[C@@H](C(=O)N[C@@H](C(=O)NC(C)(C)C(=O)N[C@@H](C(=O)N[C@@H](C(=O)NC(C)(C)C(=O)OC)[C@H](C)CC)C(C)C)C(C)C)[C@H](C)OCc1ccccc1 [SEQ ID NO:15 D-peptide, Boc-Val-Val-Ile-Aib-Thr(OBz)-Val-Aib-Val-Ile-Aib-OMe] (Boc-[dV][dV][dI][Aib][dT](Bn)[dV][Aib][dV][dI][Aib]-OMe) | 25 ± 3
CC[C@@H](C)[C@@H](NC(=O)[C@H](NC(=O)[C@H](NC(=O)C(C)(C)NC(=O)CNC(=O)[C@H](NC(=O)C(C)(C)NC(=O)OC(C)(C)C)C(C)C)C(C)C)C(C)C)C(=O)NC(C)(C)C(=O)N[C@@H](C(=O)N[C@@H](C(=O)NC(C)(C)C(=O)N[C@@H](C(=O)N[C@@H](C(=O)NC(C)(C)C(=O)OC)[C@H](C)CC)C(C)C)C(C)C)[C@H](C)OCc1ccccc1 [SEQ ID NO:19 D-peptide, Boc-Aib-Val-Gly-Aib-Val-Val-Ile-Aib-Thr(OBz)-Val-Aib-Val-Ile-Aib-OMe] (Boc-[Aib][dV]G[Aib][dV][dV][dI][Aib][dT](Bn)[dV][Aib][dV][dI][Aib]-OMe) | 14 ± 10
CC[C@H](C)[C@H](NC(=O)[C@@H](NC(=O)[C@@H](NC(=O)C(C)(C)NC(=O)CNC(=O)[C@@H](NC(=O)C(C)(C)NC(=O)OC(C)(C)C)C(C)C)C(C)C)C(C)C)C(=O)NC(C)(C)C(=O)N[C@H](C(=O)N[C@H](C(=O)NC(C)(C)C(=O)N[C@H](C(=O)N[C@H](C(=O)NC(C)(C)C(=O)OC)[C@@H](C)CC)C(C)C)C(C)C)[C@@H](C)OCc1ccccc1 [SEQ ID NO:19 L-peptide, Boc-Aib-Val-Gly-Aib-Val-Val-Ile-Aib-Thr(OBz)-Val-Aib-Val-Ile-Aib-OMe] (Boc-[Aib]VG[Aib]VVI[Aib]T(Bn)V[Aib]VI[Aib]-OMe) | 910 ± 170
CC[C@H](C)[C@H](NC(=O)[C@@H](NC(=O)[C@@H](NC(=O)C(C)(C)NC(=O)CNC(=O)OC(C)(C)C)C(C)C)C(C)C)C(=O)NC(C)(C)C(=O)N[C@H](C(=O)N[C@H](C(=O)NC(C)(C)C(=O)N[C@H](C(=O)N[C@H](C(=O)NC(C)(C)C(=O)OC)[C@@H](C)CC)C(C)C)C(C)C)[C@@H](C)OCc1ccccc1 [SEQ ID NO:17 L-peptide, Boc-Gly-Aib-Val-Val-Ile-Aib-Thr(OBz)-Val-Aib-Val-Ile-Aib-OMe] (Boc-G[Aib]VVI[Aib]T(Bn)V[Aib]VI[Aib]-OMe) | 360
CC[C@@H](C)[C@@H](NC(=O)[C@H](NC(=O)[C@H](NC(=O)C(C)(C)NC(=O)CNC(=O)OC(C)(C)C)C(C)C)C(C)C)C(=O)NC(C)(C)C(=O)N[C@@H](C(=O)N[C@@H](C(=O)NC(C)(C)C(=O)N[C@@H](C(=O)N[C@@H](C(=O)NC(C)(C)C(=O)OC)[C@H](C)CC)C(C)C)C(C)C)[C@H](C)OCc1ccccc1 [SEQ ID NO:17 D-peptide, Boc-Gly-Aib-Val-Val-Ile-Aib-Thr(OBz)-Val-Aib-Val-Ile-Aib-OMe] (Boc-G[Aib][dV][dV][dI][Aib][dT](Bn)[dV][Aib][dV][dI][Aib]-OMe) | 12 ± 4
CC[C@H](C)[C@H](NC(=O)[C@@H](NC(=O)[C@@H](NC(=O)OC(C)(C)C)C(C)C)C(C)C)C(=O)NC(C)(C)C(=O)N[C@H](C(=O)N[C@H](C(=O)NC(C)(C)C(=O)N[C@H](C(=O)N[C@H](C(=O)NC(C)(C)C(=O)OC)[C@@H](C)CC)C(C)C)C(C)C)[C@@H](C)OCc1ccccc1 [SEQ ID NO:15 L-peptide, Boc-Val-Val-Ile-Aib-Thr(OBz)-Val-Aib-Val-Ile-Aib-OMe] (Boc-VVI[Aib]T(Bn)V[Aib]VI[Aib]-OMe) | 10000
CC[C@@H](C)[C@@H](NC(=O)[C@H](NC(=O)[C@H](NC(=O)C(C)(C)NC(=O)OC(C)(C)C)C(C)C)C(C)C)C(=O)NC(C)(C)C(=O)N[C@@H](C(=O)N[C@@H](C(=O)NC(C)(C)C(=O)N[C@@H](C(=O)N[C@@H](C(=O)NC(C)(C)C(=O)OC)[C@H](C)CC)C(C)C)C(C)C)[C@H](C)OCc1ccccc1 [SEQ ID NO:16 D-peptide, Boc-Aib-Val-Val-Ile-Aib-Thr(OBz)-Val-Aib-Val-Ile-Aib-OMe] (Boc-[Aib][dV][dV][dI][Aib][dT](Bn)[dV][Aib][dV][dI][Aib]-OMe) | 28 ± 19
CC[C@H](C)[C@H](NC(=O)[C@@H](NC(=O)[C@@H](NC(=O)C(C)(C)NC(=O)CNC(=O)[C@@H](NC(=O)C(C)(C)NC(=O)[C@H](CC(C)C)NC(=O)CNC(=O)OC(C)(C)C)C(C)C)C(C)C)C(C)C)C(=O)NC(C)(C)C(=O)N[C@H](C(=O)N[C@H](C(=O)NC(C)(C)C(=O)N[C@H](C(=O)N[C@H](C(=O)NC(C)(C)C(=O)OC)[C@@H](C)CC)C(C)C)C(C)C)[C@@H](C)OCc1ccccc1 [SEQ ID NO:21 L-peptide, Boc-Gly-Leu-Aib-Val-Gly-Aib-Val-Val-Ile-Aib-Thr(OBz)-Val-Aib-Val-Ile-Aib-OMe] (Boc-GL[Aib]VG[Aib]VVI[Aib]T(Bn)V[Aib]VI[Aib]-OMe) | 11000

same assay, conditions: L-series, cell-free assay

SMILES | increase in potency over the reference L-decapeptide having SEQ ID NO:10 [fold]
CC[C@H](C)[C@H](NC(=O)[C@@H](NC(=O)[C@@H](NC(=O)C(C)(C)NC(=O)CNC(=O)OC(C)(C)C)C(C)C)C(C)C)C(=O)NC(C)(C)C(=O)N[C@H](C(=O)N[C@H](C(=O)NC(C)(C)C(=O)N[C@H](C(=O)N[C@H](C(=O)NC(C)(C)C(=O)OC)[C@@H](C)CC)C(C)C)C(C)C)[C@@H](C)OCc1ccccc1 [SEQ ID NO:17 L-peptide, Boc-Gly-Aib-Val-Val-Ile-Aib-Thr(OBz)-Val-Aib-Val-Ile-Aib-OMe] (Boc-G[Aib]VVI[Aib]T(Bn)V[Aib]VI[Aib]-OMe) | ~100
